Laboratory results from the NIST ThermoML archive (doi:10.1016/j.fluid.2011.01.013).

Assay: xn = mol fraction of the nth substance listed
Conditions: Gas, Oscillating disk viscometry

CCN(CC)CC [triethylamine] + CO
Conditions | viscosity [mPa·s]
296.97 K, Mass density=2.1808 kg/m3, x2 = 0.4998 | 0.007913
297.25 K, Mass density=0.6964 kg/m3, x2 = 0.4996 | 0.007853
298.22 K, Mass density=1.2804 kg/m3, x2 = 0.3322 | 0.007476
298.82 K, Mass density=0.6964 kg/m3, x2 = 0.4996 | 0.007887
298.92 K, Mass density=1.1039 kg/m3, x2 = 0.4982 | 0.007914
299.02 K, Mass density=0.6482 kg/m3, x2 = 0.4999 | 0.007865
310.39 K, Mass density=0.6964 kg/m3, x2 = 0.4996 | 0.008055
310.51 K, Mass density=2.1808 kg/m3, x2 = 0.4998 | 0.008259
310.56 K, Mass density=0.6482 kg/m3, x2 = 0.4999 | 0.008025
310.62 K, Mass density=1.1039 kg/m3, x2 = 0.4982 | 0.008147
310.75 K, Mass density=1.5253 kg/m3, x2 = 0.5035 | 0.008235
311.73 K, Mass density=1.2804 kg/m3, x2 = 0.3322 | 0.007712
324.1 K, Mass density=2.1808 kg/m3, x2 = 0.4998 | 0.008539
324.27 K, Mass density=1.2804 kg/m3, x2 = 0.3322 | 0.007852
324.64 K, Mass density=0.6964 kg/m3, x2 = 0.4996 | 0.008338
325.29 K, Mass density=1.1039 kg/m3, x2 = 0.4982 | 0.008337
325.44 K, Mass density=0.6482 kg/m3, x2 = 0.4999 | 0.008367
326.59 K, Mass density=1.5253 kg/m3, x2 = 0.5035 | 0.008476
337.6 K, Mass density=1.2804 kg/m3, x2 = 0.3322 | 0.008072
338.04 K, Mass density=1.5253 kg/m3, x2 = 0.5035 | 0.008626
338.18 K, Mass density=0.6482 kg/m3, x2 = 0.4999 | 0.008693
338.18 K, Mass density=1.1039 kg/m3, x2 = 0.4982 | 0.008632
338.37 K, Mass density=0.6964 kg/m3, x2 = 0.4996 | 0.008695
338.58 K, Mass density=2.1808 kg/m3, x2 = 0.4998 | 0.00869
352.3 K, Mass density=0.6964 kg/m3, x2 = 0.4996 | 0.009039
352.47 K, Mass density=0.6482 kg/m3, x2 = 0.4999 | 0.009053
352.57 K, Mass density=1.1039 kg/m3, x2 = 0.4982 | 0.009009
352.83 K, Mass density=2.1808 kg/m3, x2 = 0.4998 | 0.008949
352.91 K, Mass density=1.2804 kg/m3, x2 = 0.3322 | 0.008441
353.02 K, Mass density=1.5253 kg/m3, x2 = 0.5035 | 0.009026
365.7 K, Mass density=2.1808 kg/m3, x2 = 0.4998 | 0.009281
365.96 K, Mass density=1.5253 kg/m3, x2 = 0.5035 | 0.009349
366.02 K, Mass density=1.2804 kg/m3, x2 = 0.3322 | 0.008766
366.12 K, Mass density=1.5253 kg/m3, x2 = 0.5035 | 0.009363
366.13 K, Mass density=0.6482 kg/m3, x2 = 0.4999 | 0.009411
366.22 K, Mass density=1.2804 kg/m3, x2 = 0.3322 | 0.008747
366.24 K, Mass density=0.6964 kg/m3, x2 = 0.4996 | 0.009388
366.29 K, Mass density=1.1039 kg/m3, x2 = 0.4982 | 0.009353
366.41 K, Mass density=2.1808 kg/m3, x2 = 0.4998 | 0.009307
366.96 K, Mass density=0.6482 kg/m3, x2 = 0.4999 | 0.009415
367.89 K, Mass density=1.1039 kg/m3, x2 = 0.4982 | 0.009381
379.75 K, Mass density=1.2804 kg/m3, x2 = 0.3322 | 0.009075
380.83 K, Mass density=2.1808 kg/m3, x2 = 0.4998 | 0.009681
381.57 K, Mass density=0.6482 kg/m3, x2 = 0.4999 | 0.009793
381.81 K, Mass density=1.5253 kg/m3, x2 = 0.5035 | 0.00977
381.91 K, Mass density=1.1039 kg/m3, x2 = 0.4982 | 0.009758
383.76 K, Mass density=0.6964 kg/m3, x2 = 0.4996 | 0.009828
394.29 K, Mass density=2.1808 kg/m3, x2 = 0.4998 | 0.01004
394.84 K, Mass density=1.5253 kg/m3, x2 = 0.5035 | 0.01009
394.95 K, Mass density=0.6964 kg/m3, x2 = 0.4996 | 0.0101
394.98 K, Mass density=1.2804 kg/m3, x2 = 0.3322 | 0.009437
395.04 K, Mass density=0.6482 kg/m3, x2 = 0.4999 | 0.01012
395.34 K, Mass density=1.1039 kg/m3, x2 = 0.4982 | 0.01008
408.74 K, Mass density=1.2804 kg/m3, x2 = 0.3322 | 0.009753
409.01 K, Mass density=1.1039 kg/m3, x2 = 0.4982 | 0.01044
409.18 K, Mass density=2.1808 kg/m3, x2 = 0.4998 | 0.01042
409.61 K, Mass density=0.6482 kg/m3, x2 = 0.4999 | 0.0105
410.61 K, Mass density=1.5253 kg/m3, x2 = 0.5035 | 0.0105
410.75 K, Mass density=0.6964 kg/m3, x2 = 0.4996 | 0.01052
422.83 K, Mass density=1.2804 kg/m3, x2 = 0.3322 | 0.01008
423.21 K, Mass density=1.5253 kg/m3, x2 = 0.5035 | 0.01081
423.31 K, Mass density=0.6964 kg/m3, x2 = 0.4996 | 0.01083
423.64 K, Mass density=2.1808 kg/m3, x2 = 0.4998 | 0.01078
423.81 K, Mass density=1.1039 kg/m3, x2 = 0.4982 | 0.01081
425.55 K, Mass density=0.6482 kg/m3, x2 = 0.4999 | 0.01091
436.79 K, Mass density=1.5253 kg/m3, x2 = 0.5035 | 0.01116
436.89 K, Mass density=2.1808 kg/m3, x2 = 0.4998 | 0.01111
436.91 K, Mass density=0.6964 kg/m3, x2 = 0.4996 | 0.01117
437.47 K, Mass density=1.1039 kg/m3, x2 = 0.4982 | 0.01116
438.27 K, Mass density=0.6482 kg/m3, x2 = 0.4999 | 0.01122
441.21 K, Mass density=1.2804 kg/m3, x2 = 0.3322 | 0.01053
451.54 K, Mass density=1.2804 kg/m3, x2 = 0.3322 | 0.01076
451.6 K, Mass density=1.5253 kg/m3, x2 = 0.5035 | 0.01154
451.74 K, Mass density=1.1039 kg/m3, x2 = 0.4982 | 0.01151
452.02 K, Mass density=2.1808 kg/m3, x2 = 0.4998 | 0.01151
452.69 K, Mass density=0.6964 kg/m3, x2 = 0.4996 | 0.01157
453.25 K, Mass density=0.6482 kg/m3, x2 = 0.4999 | 0.01161
466.65 K, Mass density=2.1808 kg/m3, x2 = 0.4998 | 0.01188
466.76 K, Mass density=1.5253 kg/m3, x2 = 0.5035 | 0.01191
467.26 K, Mass density=1.1039 kg/m3, x2 = 0.4982 | 0.0119
467.4 K, Mass density=1.2804 kg/m3, x2 = 0.3322 | 0.01113
467.62 K, Mass density=0.6482 kg/m3, x2 = 0.4999 | 0.01197
480.98 K, Mass density=1.2804 kg/m3, x2 = 0.3322 | 0.01145
481.28 K, Mass density=1.1039 kg/m3, x2 = 0.4982 | 0.01225
481.51 K, Mass density=2.1808 kg/m3, x2 = 0.4998 | 0.01224
481.53 K, Mass density=0.6964 kg/m3, x2 = 0.4996 | 0.01229
482.14 K, Mass density=0.6482 kg/m3, x2 = 0.4999 | 0.01231
482.73 K, Mass density=1.5253 kg/m3, x2 = 0.5035 | 0.01229
494.94 K, Mass density=0.6964 kg/m3, x2 = 0.4996 | 0.01263
495.26 K, Mass density=1.2804 kg/m3, x2 = 0.3322 | 0.01179
495.28 K, Mass density=2.1808 kg/m3, x2 = 0.4998 | 0.0126
495.78 K, Mass density=1.5253 kg/m3, x2 = 0.5035 | 0.01264
496.37 K, Mass density=0.6482 kg/m3, x2 = 0.4999 | 0.01269
497.66 K, Mass density=1.1039 kg/m3, x2 = 0.4982 | 0.01267
